From publication PMC6979384, “Characterization of the plant homeodomain (PHD) reader family for their histone tail interactions” (Epigenetics & Chromatin, 2020)

What was measured:
Experiment in all cases: Histone peptide microarray
Format in all cases: binding, human
AIRE (PP) = conditions: AIRE (PP); sheet "Array Heatmap"; each array performed twice, total n = 4
Procedure, shortened: (§1)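 Binding read as mean relative signal from 4 replicates; microarray held 293 synthetic histone peptides with single or combinatorial PTMs. Each GST-tagged PHD reader was applied at 0.5 μM using the optimized Petell protocol.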

DIDO1 = conditions: DIDO1; sheet "Array Heatmap"; each array performed twice, total n = 4
Procedure, shortened: as §1

KDM5A (3) = conditions: KDM5A (3); sheet "Array Heatmap"; each array performed twice, total n = 4
Procedure, shortened: as §1

TRIM66 (PB) = conditions: TRIM66 (PB); sheet "Array Heatmap"; each array performed twice, total n = 4
Procedure, shortened: as §1

KDM4C (TTP) = conditions: KDM4C (TTP); sheet "Array Heatmap"; each array performed twice, total n = 4
Procedure, shortened: as §1

BAZ2B = conditions: BAZ2B; sheet "Array Heatmap"; each array performed twice, total n = 4
Procedure, shortened: as §1

KDM5A (1) = conditions: KDM5A (1); sheet "Array Heatmap"; each array performed twice, total n = 4
Procedure, shortened: as §1

CHD5 (PCC) = conditions: CHD5 (PCC); sheet "Array Heatmap"; each array performed twice, total n = 4
Procedure, shortened: as §1

PHF21A = conditions: PHF21A; sheet "Array Heatmap"; each array performed twice, total n = 4
Procedure, shortened: as §1

PHRF1 (RP) = conditions: PHRF1 (RP); sheet "Array Heatmap"; each array performed twice, total n = 4
Procedure, shortened: as §1

SP140L = conditions: SP140L; sheet "Array Heatmap"; each array performed twice, total n = 4
Procedure, shortened: as §1

ING2 = conditions: ING2; sheet "Array Heatmap"; each array performed twice, total n = 4
Procedure, shortened: as §1

RAG2 = conditions: RAG2; sheet "Array Heatmap"; each array performed twice, total n = 4
Procedure, shortened: as §1

KDM5B (1) = conditions: KDM5B (1); sheet "Array Heatmap"; each array performed twice, total n = 4
Procedure, shortened: as §1

KDM5B (3) = conditions: KDM5B (3); sheet "Array Heatmap"; each array performed twice, total n = 4
Procedure, shortened: as §1

ING4 = conditions: ING4; sheet "Array Heatmap"; each array performed twice, total n = 4
Procedure, shortened: as §1

KDM7A = conditions: KDM7A; sheet "Array Heatmap"; each array performed twice, total n = 4
Procedure, shortened: as §1

PHF2 = conditions: PHF2; sheet "Array Heatmap"; each array performed twice, total n = 4
Procedure, shortened: as §1

MORC3 (CW) = conditions: MORC3 (CW); sheet "Array Heatmap"; each array performed twice, total n = 4
Procedure, shortened: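 GST-PHD reader, 0.5 μM, probed on 293-peptide histone array (single/combinatorial PTMs); optimized array protocol; signal = mean ± SD, n = 4.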

CHD4 (PPCC) = conditions: CHD4 (PPCC); sheet "Array Heatmap"; each array performed twice, total n = 4
Procedure, shortened: as §1

ING5 = conditions: ING5; sheet "Array Heatmap"; each array performed twice, total n = 4
Procedure, shortened: as §1

PHF23 = conditions: PHF23; sheet "Array Heatmap"; each array performed twice, total n = 4
Procedure, shortened: as §1

MLL5 = conditions: MLL5; sheet "Array Heatmap"; each array performed twice, total n = 4
Procedure, shortened: as §1

DPF2 (PPC2W2) = conditions: DPF2 (PPC2W2); sheet "Array Heatmap"; each array performed twice, total n = 4
Procedure, shortened: as §1

ING1 = conditions: ING1; sheet "Array Heatmap"; each array performed twice, total n = 4
Procedure, shortened: as §1

PHF13 = conditions: PHF13; sheet "Array Heatmap"; each array performed twice, total n = 4
Procedure, shortened: as §1

TAF3 = conditions: TAF3; sheet "Array Heatmap"; each array performed twice, total n = 4
Procedure, shortened: as §1

PHF8 = conditions: PHF8; sheet "Array Heatmap"; each array performed twice, total n = 4
Procedure, shortened: as §1

CHD5 (PPCC) = conditions: CHD5 (PPCC); sheet "Array Heatmap"; each array performed twice, total n = 4
Procedure, shortened: as §1

ING3 = conditions: ING3; sheet "Array Heatmap"; each array performed twice, total n = 4
Procedure, shortened: as §1

BPTF (PB) = conditions: BPTF (PB); sheet "Array Heatmap"; each array performed twice, total n = 4
Procedure, shortened: as §1

In the case of H4K5ac + K8me1 + K12ac + K16ac: H4 1-23, the “Array Heatmap value (peptide array signal)” value (from here on “Array Heatmap value”) (AIRE (PP)) is reported as 0.5672, the “Array Heatmap value” value (DIDO1) is reported as 0.7292 and the “Array Heatmap value” value (KDM5A (3)) is reported as 0.4998. For the same substance, the “Array Heatmap value” value (TRIM66 (PB)) was 0.6845, the “Array Heatmap value” value (KDM4C (TTP)) was 0.5456 and the “Array Heatmap value” value (BAZ2B) was 0.5032. For the same substance, the “Array Heatmap value” value (KDM5A (1)) was 0.5072, the “Array Heatmap value” value (CHD5 (PCC)) was 0.8607 and the “Array Heatmap value” value (PHF21A) was 0.4984. The “Array Heatmap value” value (PHRF1 (RP)) was 0.4565, the “Array Heatmap value” value (SP140L) was 0.3759 and the “Array Heatmap value” value (ING2) was 0.602. The “Array Heatmap value” value (RAG2) was 0.2535, the “Array Heatmap value” value (KDM5B (1)) was 0.7009 and the “Array Heatmap value” value (KDM5B (3)) was 0.4848. For the same substance, the “Array Heatmap value” value (ING4) was 0.5013, the “Array Heatmap value” value (KDM7A) was 0.4269 and the “Array Heatmap value” value (PHF2) was 0.5076. For the same substance, the “Array Heatmap value” value (MORC3 (CW)) was 0.4169, the “Array Heatmap value” value (CHD4 (PPCC)) was 0.5762 and the “Array Heatmap value” value (ING5) was 0.3988. For the same substance, the “Array Heatmap value” value (PHF23) was 0.5588, the “Array Heatmap value” value (MLL5) was 0.5641 and the “Array Heatmap value” value (DPF2 (PPC2W2)) was 0.6672. For the same substance, the “Array Heatmap value” value (ING1) was 0.5458, the “Array Heatmap value” value (PHF13) was 0.643 and the “Array Heatmap value” value (TAF3) was 0.2847. For the same substance, the “Array Heatmap value” value (PHF8) was 0.4058, the “Array Heatmap value” value (CHD5 (PPCC)) was 0.5973 and the “Array Heatmap value” value (ING3) was 0.4952. For the same substance, the “Array Heatmap value” value (BPTF (PB)) was 0.382.
